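Cells were grown in 96-well plates and exposed to each compound for 48 hours at five concentrations; endpoints were interpolated linearly between bracketing concentrations, or set to the highest concentration if not reached. GI50 marks 50% less growth.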 The source made the active and inactive calls. Cut-off read from the data, not from the text of the source: active = GI50 up to about 1.1 µM and inactive = higher.
Legend:
Experiment in all cases: growth of human tumour cells (NCI), 48 h
K562 = test system: K562
MOLT-4 = test system: MOLT-4
UACC-62 = test system: UACC-62
HCC 2998 = test system: HCC 2998
UACC-257 = test system: UACC-257
OVCAR-8 = test system: OVCAR-8
LXFL 529 = test system: LXFL 529
CCRF-CEM = test system: CCRF-CEM
SNB-75 = test system: SNB-75
SF-539 = test system: SF-539
RPMI-8226 = test system: RPMI-8226
SK-MEL-2 = test system: SK-MEL-2
HL-60 = test system: HL-60
A549 = test system: A549
HCT-116 = test system: HCT-116
OVCAR-5 = test system: OVCAR-5
SK-MEL-28 = test system: SK-MEL-28
NCI-H23 = test system: NCI-H23
U-251 = test system: U-251
DMS-273 = test system: DMS-273
SK-MEL-5 = test system: SK-MEL-5
KM-20L2 = test system: KM-20L2
ACHN = test system: ACHN
SW-620 = test system: SW-620
RXF 393 = test system: RXF 393
DMS-114 = test system: DMS-114
EKVX = test system: EKVX
UO-31 = test system: UO-31
NCI-H460 = test system: NCI-H460
SN12C = test system: SN12C
HT-29 = test system: HT-29
SF-268 = test system: SF-268
OVCAR-4 = test system: OVCAR-4
SK-OV-3 = test system: SK-OV-3
DLD-1 = test system: DLD-1
XF498 = test system: XF498
786-0 = test system: 786-0
SF-295 = test system: SF-295
SR = test system: SR
KM12 = test system: KM12
NCI-H522 = test system: NCI-H522
M19-MEL = test system: M19-MEL
TK-10 = test system: TK-10
Malme-3M = test system: Malme-3M
SNB-19 = test system: SNB-19
OVCAR-3 = test system: OVCAR-3
LOX IMVI = test system: LOX IMVI
HOP-62 = test system: HOP-62
HCT-15 = test system: HCT-15
M14 = test system: M14
SNB-78 = test system: SNB-78
COLO 205 = test system: COLO 205
IGROV-1 = test system: IGROV-1
A498 = test system: A498
NCI-H226 = test system: NCI-H226
HOP-92 = test system: HOP-92
CAKI-1 = test system: CAKI-1

Measured: GI50

CC(C)(C)C1=Nc2c(Br)cc(C(C)(C)C)cc2C(C(F)(F)F)(C(F)(F)F)O1
inactive: K562 39.4 µM | MOLT-4 45.8 µM | UACC-62 > 100 µM | HCC 2998 29.9 µM | UACC-257 48 µM | OVCAR-8 80.5 µM | LXFL 529 46.7 µM | CCRF-CEM 32.7 µM | SNB-75 > 100 µM | SF-539 37.8 µM | RPMI-8226 25.3 µM | SK-MEL-2 > 100 µM | HL-60 22.2 µM | A549 43.4 µM | HCT-116 41.2 µM | OVCAR-5 > 100 µM | SK-MEL-28 32.7 µM | NCI-H23 > 100 µM | U-251 22.9 µM | DMS-273 46 µM | SK-MEL-5 83.6 µM | KM-20L2 > 100 µM | ACHN 45 µM | SW-620 46.7 µM | RXF 393 22.5 µM | DMS-114 31.6 µM | EKVX > 100 µM | UO-31 47.2 µM | NCI-H460 > 100 µM | SN12C 38.4 µM | HT-29 57.9 µM | SF-268 > 10 µM | OVCAR-4 > 100 µM | SK-OV-3 > 100 µM | DLD-1 > 100 µM | XF498 19 µM | 786-0 35.3 µM | SF-295 54.8 µM | SR 54 µM | KM12 > 100 µM | NCI-H522 31.1 µM | M19-MEL 72.6 µM | TK-10 > 100 µM | Malme-3M > 100 µM | SNB-19 70.8 µM | OVCAR-3 17 µM | LOX IMVI 16.2 µM | HOP-62 > 100 µM | M14 > 100 µM | SNB-78 > 100 µM | COLO 205 > 100 µM | IGROV-1 65.5 µM
43.7 µM: HCT-15

COC(=O)CC1NC(=O)[C@@H]1C(C)O (stereo partly specified)
> 100 µM: HCT-15
inactive: K562 > 100 µM | MOLT-4 > 100 µM | UACC-62 > 100 µM | HCC 2998 > 100 µM | UACC-257 > 100 µM | OVCAR-8 > 100 µM | LXFL 529 > 100 µM | CCRF-CEM > 100 µM | SNB-75 > 100 µM | SF-539 > 100 µM | RPMI-8226 > 100 µM | SK-MEL-2 > 100 µM | HL-60 > 100 µM | A549 > 100 µM | HCT-116 > 100 µM | SK-MEL-28 > 100 µM | U-251 > 100 µM | DMS-273 > 100 µM | SK-MEL-5 > 100 µM | KM-20L2 > 100 µM | ACHN > 100 µM | SW-620 > 100 µM | RXF 393 > 100 µM | DMS-114 > 100 µM | EKVX > 100 µM | UO-31 > 100 µM | NCI-H460 > 100 µM | SN12C > 100 µM | HT-29 > 100 µM | A498 > 100 µM | SF-268 > 100 µM | OVCAR-4 > 100 µM | DLD-1 > 10 µM | XF498 > 100 µM | 786-0 > 100 µM | SF-295 > 100 µM | SR > 100 µM | M19-MEL > 100 µM | TK-10 > 100 µM | Malme-3M > 100 µM | SNB-19 > 100 µM | OVCAR-3 > 100 µM | NCI-H226 > 100 µM | LOX IMVI > 100 µM | HOP-62 > 100 µM | M14 > 100 µM | COLO 205 > 100 µM | IGROV-1 > 100 µM

O=C1C(=O)N(c2cc(Cl)ccc2Cl)C(=O)C(=O)C1c1nc2ccccc2s1
inactive: K562 93.1 µM | UACC-62 > 100 µM | HOP-92 24.4 µM | UACC-257 98.2 µM | OVCAR-8 > 100 µM | LXFL 529 82.2 µM | CCRF-CEM 62.4 µM | SNB-75 49.4 µM | SF-539 > 100 µM | RPMI-8226 > 100 µM | SK-MEL-2 > 100 µM | HL-60 > 100 µM | A549 > 100 µM | HCT-116 66.5 µM | OVCAR-5 > 100 µM | CAKI-1 > 100 µM | SK-MEL-28 > 100 µM | NCI-H23 > 100 µM | U-251 > 100 µM | DMS-273 > 100 µM | SK-MEL-5 > 100 µM | KM-20L2 > 100 µM | ACHN > 100 µM | SW-620 > 100 µM | RXF 393 > 100 µM | DMS-114 > 100 µM | EKVX > 100 µM | UO-31 16.2 µM | NCI-H460 > 100 µM | SN12C > 100 µM | HT-29 > 100 µM | A498 > 100 µM | SF-268 86.5 µM | OVCAR-4 > 100 µM | SK-OV-3 > 100 µM | DLD-1 > 100 µM | XF498 > 100 µM | 786-0 > 100 µM | SF-295 > 100 µM | KM12 > 100 µM | NCI-H522 > 100 µM | M19-MEL > 100 µM | TK-10 > 100 µM | Malme-3M > 100 µM | SNB-19 > 100 µM | OVCAR-3 > 100 µM | NCI-H226 34.4 µM | LOX IMVI > 100 µM | HOP-62 > 100 µM | M14 > 100 µM | SNB-78 > 100 µM | COLO 205 > 100 µM | IGROV-1 > 100 µM
> 100 µM: HCT-15

From ChEMBL document CHEMBL1201862, “PubChem BioAssay data set” (2004)
